Reference: patent US20260007634A1, “PHARMACEUTICAL COMPOSITIONS FOR THE TREATMENT OF ALLERGIC DISEASES” (KINKI UNIVERSITY, priority 2022, published 2026)

Key:
Type in all cases: in vivo, mouse
[1] = tested on: IL-17; assay: Serum IL-17 ELISA, food allergy mice; conditions: OVA food allergy; serum day 28; oral 10 mg/kg (dexamethasone 2 mg/kg); control 98, vehicle 875
Description: A 0.2 mL dose of 10 μg ovalbumin (OVA) and 1 mg Alum mixture was administered to 6-week-old female Balb/c mice (Japan SLC Inc.) (day 0 of the example). Alum was used as an adjuvant. Seven days later, the Balb/c mice were immunized again with a 0.2 mL injection of the above mixture. Starting on day 14, mice were orally treated with 10 mg/kg of norathyriol, 10 mg/kg of mangiferin 8a, 10 mg/kg of tofacitinib (JAK inhibitor), 2 mg/kg of dexamethasone (steroid) and 10 mg/kg of olopatadine (antihistamine) daily for 14 consecutive days. Starting on day 14, 10 mg OVA was administered orally every other day […], and the frequency of diarrhea was measured after the final administration on day 28. Note that tofacitinib, dexamethasone, and olopatadine are currently in clinical use in food allergy and were used as control drugs in this example.
Serum was collected from day 28 mice in Examples 21, and IL-17 production was measured by enzyme-linked immunosorbent assay (ELISA). This assay was performed using a mouse IL-17 ELISA kit (R&D).

[2] = tested on: IL-5; assay: Serum IL-5 ELISA, food allergy mice; conditions: OVA food allergy; serum day 28; oral 10 mg/kg (dexamethasone 2 mg/kg); control 135, vehicle 916
Description: A 0.2 mL dose of 10 μg ovalbumin (OVA) and 1 mg Alum mixture was administered to 6-week-old female Balb/c mice (Japan SLC Inc.) (day 0 of the example). Alum was used as an adjuvant. Seven days later, the Balb/c mice were immunized again with a 0.2 mL injection of the above mixture. Starting on day 14, mice were orally treated with 10 mg/kg of norathyriol, 10 mg/kg of mangiferin 8a, 10 mg/kg of tofacitinib (JAK inhibitor), 2 mg/kg of dexamethasone (steroid) and 10 mg/kg of olopatadine (antihistamine) daily for 14 consecutive days. […]
Serum was collected from day 28 mice in Examples 21, and IL-5 production was measured by enzyme-linked immunosorbent assay (ELISA). This assay was performed using a mouse IL-5 ELISA kit (R&D).

[3] = tested on: OVA-IgE antibody; assay: Serum OVA-IgE antibody ELISA, bronchial asthma mice; conditions: serum day 28, oral 10 mg/kg (dexamethasone 2 mg/kg), control 2.4, vehicle 66
Description: (§1) A 0.2 mL dose of 50 μg ovalbumin (OVA) and 2 mg Alum mixture was administered to 6-week-old female Balb/c mice (Japan SLC Inc.) (day 0 of the example). Alum was used as an adjuvant. Seven days later and 14 days later, the Balb/c mice were immunized again with 0.2 mL injections of the above mixture. Starting on day 20, mice were orally treated with 10 mg/kg of norathyriol, 10 mg/kg of mangiferin 8a, 10 mg/kg of tofacitinib (JAK inhibitor), 2 mg/kg of dexamethasone (steroid) and 10 mg/kg of olopatadine (antihistamine) daily for 8 consecutive days. Starting on day 21, 400 μg OVA was administered intranasally, and cough was measured on day 27. Note that tofacitinib, dexamethasone, and olopatadine are currently in clinical use in allergic rhinitis and were used as control drugs in this example.
Serum was collected from day 28 mice in Examples 14, and OVA-IgE antibody production was measured by enzyme-linked immunosorbent assay (ELISA). This assay was performed using a mouse OVA-IgE antibody ELISAkit (FUJIFILM Wako).

[4] = tested on: BAFF; assay: Serum BAFF ELISA, allergic rhinitis mice; conditions: OVA allergic rhinitis; serum day 28; oral 10 mg/kg (dexamethasone 2 mg/kg); control 157, vehicle 1450
Description: as §1, with “nose-scratching behavior” for “cough”
Serum was collected from day 28 mice in Examples 6 and 7, and BAFF production was measured by enzyme-linked immunosorbent assay (ELISA). This assay was performed using a mouse BAFF ELISA kit (R&D).

[5] = tested on: IL-17; assay: Serum IL-17 ELISA, bronchial asthma mice; conditions: OVA bronchial asthma; serum day 28; oral 10 mg/kg (dexamethasone 2 mg/kg); control 80, vehicle 898
Description: as §1
Serum was collected from day 28 mice in Examples 14, and IL-17 production was measured by enzyme-linked immunosorbent assay (ELISA). This assay was performed using a mouse IL-17 ELISA kit (R&D).

[6] = tested on: IL-17; assay: Serum IL-17 ELISA, cedar pollinosis mice; conditions: serum day 28, oral 10 mg/kg (dexamethasone 2 mg/kg), control 18, vehicle 397
Description: A 0.2 mL dose of 100 μg cedar pollen and 1 mg Alum mixture was administered to 6-week-old female Balb/c mice (Japan SLC Inc.) (day 0 of the example). Alum was used as an adjuvant. Seven days later and 14 days later, the Balb/c mice were immunized again with 0.2 mL injections of the above mixture. Starting on day 20, mice were orally treated with 10 mg/kg of norathyriol, 10 mg/kg of mangiferin 8a, 10 mg/kg of tofacitinib (JAK inhibitor), 2 mg/kg of dexamethasone (steroid) and 10 mg/kg of olopatadine (antihistamine) daily for 8 consecutive days. Starting on day 21, 500 μg cedar pollen was administered intranasally, and nose-scratching behavior was measured on day 27. Note that tofacitinib, dexamethasone, and olopatadine are currently in clinical use in cedar pollinosis and were used as control drugs in this example.
Serum was collected from day 28 mice in Examples 28 and 29, and IL-17 production was measured by enzyme-linked immunosorbent assay (ELISA). This assay was performed using a mouse IL-17 ELISA kit (R&D).

SMILES	amount of IL-17 [1] [pg/mL]	amount of IL-5 [2] [pg/mL]	amount of OVA-IgE antibody [3] [U/mL]	amount of BAFF [4] [pg/mL]	amount of IL-17 [5] [pg/mL]	amount of IL-17 [6] [pg/mL]
C[C@@H]1C[C@H]2[C@@H]3CCC4=CC(=O)C=C[C@]4(C)[C@@]3(F)[C@@H](O)C[C@]2(C)[C@@]1(O)C(=O)CO [dexamethasone]	216	249	18	266	257	49
O=c1c2cc(O)c(O)cc2oc2cc(O)cc(O)c12 [norathyriol, 1,3,6,7-tetrahydroxyxanthone]	451	475	28	629	530	195
C[C@@H]1CCN(C(=O)CC#N)C[C@@H]1N(C)c1ncnc2[nH]ccc12 [tofacitinib]	741	791	50	1041	844	244
CN(C)CC/C=C1/c2ccccc2COc2ccc(CC(=O)O)cc21 [olopatadine]	721	832	69	1691	848	172
